Data reported in the NIST ThermoML archive (doi:10.1021/je200811n).

Settings: Hot wire method

C=C(F)C(F)(F)F [2,3,3,3-tetrafluoro-1-propene]
Settings	thermal conductivity [W/m/K]
322.22 K, 6361 kPa, Liquid	0.06113
322.24 K, 721 kPa, Gas	0.01595
322.25 K, 302 kPa, Gas	0.01579
322.25 K, 21278 kPa, Liquid	0.07192
322.26 K, 11135 kPa, Liquid	0.06468
322.26 K, 16399 kPa, Liquid	0.06856
322.28 K, 617 kPa, Gas	0.01584
322.29 K, 200 kPa, Gas	0.01556
322.33 K, 103 kPa, Gas	0.01529
322.35 K, 1115 kPa, Gas	0.01644
322.36 K, 21276 kPa, Liquid	0.07119
322.37 K, 1451 kPa, Liquid	0.05654
322.37 K, 6358 kPa, Liquid	0.06119
322.38 K, 454 kPa, Gas	0.01579
322.39 K, 1199 kPa, Gas	0.01671
322.39 K, 11134 kPa, Liquid	0.06479
322.45 K, 958 kPa, Gas	0.01621
322.5 K, 861 kPa, Gas	0.01614
322.51 K, 302 kPa, Gas	0.01582
322.56 K, 720 kPa, Gas	0.01597
322.6 K, 16396 kPa, Liquid	0.06784
322.62 K, 617 kPa, Gas	0.01591
322.63 K, 6353 kPa, Liquid	0.06144
322.64 K, 201 kPa, Gas	0.01586
322.65 K, 1450 kPa, Liquid	0.05654
322.66 K, 11130 kPa, Liquid	0.06486
322.67 K, 1114 kPa, Gas	0.01646
322.69 K, 1199 kPa, Gas	0.01673
322.71 K, 21274 kPa, Liquid	0.0708
322.73 K, 453 kPa, Gas	0.01585
322.76 K, 958 kPa, Gas	0.01622
322.76 K, 16394 kPa, Liquid	0.06823
322.8 K, 6353 kPa, Liquid	0.06127
322.81 K, 103 kPa, Gas	0.01605
322.81 K, 11128 kPa, Liquid	0.06487
322.82 K, 860 kPa, Gas	0.01612
322.84 K, 1450 kPa, Liquid	0.05629
322.84 K, 21270 kPa, Liquid	0.07095
322.88 K, 302 kPa, Gas	0.01585
322.91 K, 720 kPa, Gas	0.01599
322.98 K, 616 kPa, Gas	0.01592
323 K, 200 kPa, Gas	0.01592
323 K, 1199 kPa, Gas	0.01678
323.01 K, 1114 kPa, Gas	0.01647
323.08 K, 11126 kPa, Liquid	0.06485
323.09 K, 6351 kPa, Liquid	0.06135
323.1 K, 453 kPa, Gas	0.0159
323.11 K, 957 kPa, Gas	0.01622
323.13 K, 1448 kPa, Liquid	0.05646
323.15 K, 16396 kPa, Liquid	0.06821
323.18 K, 859 kPa, Gas	0.01617
323.22 K, 103 kPa, Gas	0.01607
323.23 K, 21266 kPa, Liquid	0.07101
323.26 K, 11126 kPa, Liquid	0.06472
323.27 K, 719 kPa, Gas	0.016
323.28 K, 302 kPa, Gas	0.0159
323.28 K, 6351 kPa, Liquid	0.06102
323.33 K, 1199 kPa, Gas	0.01671
323.34 K, 614 kPa, Gas	0.01597
323.34 K, 1447 kPa, Liquid	0.05607
323.34 K, 16393 kPa, Liquid	0.06817
323.4 K, 200 kPa, Gas	0.01592
323.4 K, 21264 kPa, Liquid	0.07095
323.46 K, 956 kPa, Gas	0.01625
323.49 K, 453 kPa, Gas	0.01593
323.55 K, 858 kPa, Gas	0.01618
323.65 K, 103 kPa, Gas	0.01611
323.66 K, 718 kPa, Gas	0.01605
323.69 K, 302 kPa, Gas	0.01592
323.73 K, 612 kPa, Gas	0.01601
323.75 K, 16392 kPa, Liquid	0.06817
323.8 K, 21262 kPa, Liquid	0.07093
323.83 K, 200 kPa, Gas	0.01593
323.91 K, 453 kPa, Gas	0.01589
323.97 K, 16390 kPa, Liquid	0.068
324 K, 21259 kPa, Liquid	0.07084
324.11 K, 302 kPa, Gas	0.01598
324.12 K, 103 kPa, Gas	0.01612
324.29 K, 200 kPa, Gas	0.01599
324.62 K, 103 kPa, Gas	0.01618
331.07 K, 101 kPa, Gas	0.01664
331.09 K, 202 kPa, Gas	0.01678
331.12 K, 299 kPa, Gas	0.01699
331.29 K, 101 kPa, Gas	0.0165
331.3 K, 202 kPa, Gas	0.0167
331.34 K, 299 kPa, Gas	0.01685
331.53 K, 101 kPa, Gas	0.01639
331.54 K, 202 kPa, Gas	0.01658
331.56 K, 300 kPa, Gas	0.01677
331.78 K, 102 kPa, Gas	0.01632
331.78 K, 202 kPa, Gas	0.0165
331.8 K, 300 kPa, Gas	0.0167
331.8 K, 1511 kPa, Gas	0.01797
331.86 K, 1389 kPa, Gas	0.0177
331.9 K, 1236 kPa, Gas	0.01732
331.98 K, 1075 kPa, Gas	0.01717
332 K, 975 kPa, Gas	0.01697
332.04 K, 102 kPa, Gas	0.01627
332.04 K, 202 kPa, Gas	0.01642

Settings	thermal conductivity [W/m/K]
323.15 K, Liquid	0.05606
